The text below walks through data of patent publication US12459941B2, “Tricyclic IRAK inhibitors” (Rigel Pharmaceuticals, Inc., priority 2022, dated 2025).

Assay [1] has as its target IRAK1 (Homo sapiens, UniProt P51617). The experiment in a line: IRAK1 ADP-Glo Kinase assay. It is filed as biochemical. The following applies: 8 pt curve.
In assay [2] the test system is TNFa. The experiment in a line: TNFa ELISA, dendritic cells, Gardiquimod stimulated. The class given is cell-based. The following applies: Homo sapiens, Dendritic cell, 10 pt curve. On the technique in general: ELISA stands for enzyme-linked immunosorbent assay.
The target of assay [3] is T1, IRAK4 (Homo sapiens, UniProt Q9NWZ3).
T1 construct: purchased Signalchem I12-10G-20
T1 sequence (Q9NWZ3 1-460): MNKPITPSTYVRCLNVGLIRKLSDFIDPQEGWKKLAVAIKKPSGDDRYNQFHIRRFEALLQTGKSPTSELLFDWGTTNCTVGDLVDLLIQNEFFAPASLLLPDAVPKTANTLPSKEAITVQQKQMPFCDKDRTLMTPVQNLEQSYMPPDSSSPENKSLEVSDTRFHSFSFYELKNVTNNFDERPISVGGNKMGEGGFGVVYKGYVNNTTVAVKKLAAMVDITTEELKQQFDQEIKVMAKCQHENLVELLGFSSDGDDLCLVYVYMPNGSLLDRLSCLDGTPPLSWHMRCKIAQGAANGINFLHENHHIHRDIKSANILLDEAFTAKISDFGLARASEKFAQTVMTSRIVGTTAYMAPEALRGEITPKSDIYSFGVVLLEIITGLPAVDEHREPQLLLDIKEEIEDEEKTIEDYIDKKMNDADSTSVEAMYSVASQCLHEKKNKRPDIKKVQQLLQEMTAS
The experiment in a line: IRAK4 ADP-Glo assay. The following applies: 8 pt curve; read-out: IRAK4 ADP-Glo Kinase, 8 pt. It is filed as biochemical. Here is the method: IRAK4 Kinase Enzyme (Signalchem, I12-10G-20); 0.1M DTT (Signalchem, D86-09B); MBP Substrate (Signalchem, M42-51N); ADP Glo (Promega, V9101); 1M MgCl2 (Teknova, M03304); 1M Tris-HCl pH7.4 (Teknova, T1074); BSA (Sigma (A3059); Distilled H2O
Wallac Victor2 1420 Multilabel Counter
The ADP-Glo™ reagents were thawed at ambient temperature. The Kinase Detection Reagent was prepared by mixing kinase detection buffer with the lyophilized kinase detection substrate, and set aside.
A stock volume of 5× Reaction Kinase Buffer was made with a final concentration of 100 mM MgCl2, 200 mM Tris-HCl, and 0.5 mg/ml of BSA, in distilled H2O with a final pH7.4. A 2× working stock volume of Reaction Kinase Buffer was made containing a final concentration of […].
The components of IRAK4 Enzyme were thawed on ice. Diluted IRAK4 in 1× Kinase Reaction Buffer (diluted from 2× buffer) was prepared at […]. A […] working stock ATP Assay Solution was prepared in 1× Kinase Reaction Buffer (diluted from 2× buffer).
The compound was diluted in DMSO from 250 µM in 4-fold series dilutions for 8 points. Then diluted 1:5 in 2× Reaction Buffer in a 96 well plate. 1.01 was transferred to a 384 well plate in duplicate. […] 1 μl of 1 mg/ml stock solution of MBP substrate was added NOTE: MBP can be combined with ATP mix with equal volume and then added at 2 d/well. Final reaction volume was 5 μl.
The plate was centrifuged and the reaction mixture was incubated at room temperature for 60 minutes or at 30° C. for 30 minutes.
The reaction was terminated and the remaining ATP was depleted by adding 5 μl of ADP-Glo™ Reagent. The 384-well plate was centrifuged and then the reaction mixture was incubated for another 40 minutes at ambient temperature.
10 μl of the Kinase Detection Reagent was added. The plate was centrifuged and then the reaction mixture was incubated for another 30 minutes at ambient temperature.
The 384-well reaction plate was read using the WALLAC plate reader (Luminescence 0.1s).
On the technique in general: ADP-Glo first removes unused ATP, then detects ADP through luciferase.

For assay [4], the system named is TNFa. The experiment in a line: TNFa ELISA, PBMC, Resiquimod (R848) stimulated. The class given is cell-based. The settings on record: 10 pt curve.

Broadly, the EC50 is the concentration needed to bring the measured effect to its halfway point. Low values mean greater potency, high ones weaker potency.

IRAK1, sequence (P51617 whole entry): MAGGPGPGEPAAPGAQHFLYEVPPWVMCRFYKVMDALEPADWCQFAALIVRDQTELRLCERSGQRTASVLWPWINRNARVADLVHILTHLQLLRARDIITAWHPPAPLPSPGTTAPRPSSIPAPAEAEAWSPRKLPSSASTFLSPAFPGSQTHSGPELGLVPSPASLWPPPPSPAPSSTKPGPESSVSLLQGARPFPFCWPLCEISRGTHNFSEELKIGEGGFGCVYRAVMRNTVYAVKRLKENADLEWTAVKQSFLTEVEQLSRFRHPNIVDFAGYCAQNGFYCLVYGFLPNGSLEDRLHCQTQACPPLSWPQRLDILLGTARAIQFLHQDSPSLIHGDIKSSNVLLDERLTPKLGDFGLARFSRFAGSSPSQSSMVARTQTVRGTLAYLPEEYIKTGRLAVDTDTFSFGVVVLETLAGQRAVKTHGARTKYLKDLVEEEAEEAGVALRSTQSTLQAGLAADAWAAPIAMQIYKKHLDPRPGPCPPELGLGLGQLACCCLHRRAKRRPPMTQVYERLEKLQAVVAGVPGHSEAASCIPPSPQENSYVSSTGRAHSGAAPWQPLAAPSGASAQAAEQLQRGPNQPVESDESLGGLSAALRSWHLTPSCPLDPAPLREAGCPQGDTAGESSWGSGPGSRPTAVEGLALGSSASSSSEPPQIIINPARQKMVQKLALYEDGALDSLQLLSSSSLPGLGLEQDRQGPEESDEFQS

`CC[C@@H]1[C@H](F)C(=O)N[C@@H]1COc1nccc2cc3c(=O)[nH]cc(C#N)c3cc12` [I-47, 6-(((2S,3S,4S)-3-ethyl-4-fluoro-5-oxopyrrolidin-2-yl)methoxy)-1-oxo-1,2-dihydropyrido[3,4-g]isoquinoline-4-carbonitrile]: the IC50 in assay [1] turned out to be 0.531 µM; in assay [3], 35 nM. The EC50 in assay [2] is 78.2 nM; in assay [4] it was 78.8 nM.

For the compound `CC[C@@H]1[C@H](F)C(=O)N[C@@H]1COc1nccc2cc3c(=O)[nH]ccc3cc12` [I-46, 6-(((2S,3S,4S)-3-ethyl-4-fluoro-5-oxopyrrolidin-2-yl)methoxy)pyrido[3,4-g]isoquinolin-1(2H)-one], the IC50 in assay [1] stood at 1.12 µM; in assay [3], 6.5 nM. For the same compound, the values for the EC50 in assay [2] and in assay [4] were 239 nM and 295 nM, respectively.

In the case of `C=Cc1c[nH]c(=O)c2cc3ccnc(OC[C@@H]4CCC(=O)N4)c3cc12` [I-7, (S)-6-((5-oxopyrrolidin-2-yl)methoxy)-4-vinylpyrido[3,4-g]isoquinolin-1(2H)-one], the IC50 came out at 4.28 µM in assay [1] and 4.8 nM in assay [3]. The EC50 in assay [2] stood at 215 nM; in assay [4] it was 192 nM.

Turning to `O=C1CC[C@@H](COc2nccc3cc4c(=O)[nH]ccc4cc23)N1` [I-5, (S)-6-((5-oxopyrrolidin-2-yl)methoxy)pyrido[3,4-g]isoquinolin-1(2H)-one], the results for the EC50 in assay [2] and in assay [4] were 5680 nM and 4390 nM, respectively. Also, the IC50 in assay [3] amounted to 160 nM.

On to `O=C1CC[C@@H](COc2nccc3cc4c(=O)[nH]cc(I)c4cc23)N1` [I-6, (S)-4-iodo-6-((5-oxopyrrolidin-2-yl)methoxy)pyrido[3,4-g]isoquinolin-1(2H)-one], for which the EC50 in assay [2] came to 45.8 nM; in assay [4] it was 32.2 nM. Also, the IC50 in assay [3] came out at 3.1 nM.

Regarding `O=C1CC[C@@H](COc2nccc3cc4c(=O)[nH]cc(-c5cn[nH]c5)c4cc23)N1` [I-33, (S)-6-((5-oxopyrrolidin-2-yl)methoxy)-4-(1H-pyrazol-4-yl)pyrido[3,4-g]isoquinolin-1(2H)-one], the IC50 worked out at 3.01 µM in assay [1] and 28 nM in assay [3]. Besides, the EC50 in assay [2] is 25600 nM.

On to `CC[C@@H]1[C@H](F)C(=O)N[C@@H]1COc1nccc2cc3c(=O)[nH]cc(C)c3cc12` [I-45, 6-(((2S,3S,4S)-3-ethyl-4-fluoro-5-oxopyrrolidin-2-yl)methoxy)-4-methylpyrido[3,4-g]isoquinolin-1(2H)-one], for which the IC50 is 0.018 µM in assay [1] and 5.5 nM in assay [3]. In addition, the EC50 in assay [2] came out at 3.4 nM; in assay [4] it was 2.7 nM.

In the case of `O=C1CC[C@@H](COc2nccc3cc4c(=O)[nH]cc(C5CCC5)c4cc23)N1` [I-12, (S)-4-cyclobutyl-6-((5-oxopyrrolidin-2-yl)methoxy)pyrido[3,4-g]isoquinolin-1(2H)-one], the IC50 in assay [1] came out at 7.86 µM; in assay [3] it was 39.6 nM. Moreover, the EC50 in assay [2] was 11700 nM; in assay [4], 203 nM.

In the case of `C#CC(C)(O)c1c[nH]c(=O)c2cc3ccnc(OC[C@@H]4CCC(=O)N4)c3cc12` (stereo partly drawn) [I-37, 4-(2-hydroxybut-3-yn-2-yl)-6-(((S)-5-oxopyrrolidin-2-yl)methoxy)pyrido[3,4-g]isoquinolin-1(2H)-one], the IC50 in assay [1] was 11 µM; in assay [3], 1210 nM. Further, it took 44000 nM to reach a half-maximal effect in assay [2] (EC50).

Regarding `C#Cc1c[nH]c(=O)c2cc3ccnc(OC[C@@H]4CCC(=O)N4)c3cc12` [I-18, (S)-4-ethynyl-6-((5-oxopyrrolidin-2-yl)methoxy)pyrido[3,4-g]isoquinolin-1(2H)-one], the IC50 was 12 µM in assay [1] and 14.4 nM in assay [3]. For the same compound, the EC50 in assay [2] was 358 nM; in assay [4] it was 337 nM.

`CC(C)Cc1c[nH]c(=O)c2cc3ccnc(OC[C@@H]4CCC(=O)N4)c3cc12` [I-50, (S)-4-isobutyl-6-((5-oxopyrrolidin-2-yl)methoxy)pyrido[3,4-g]isoquinolin-1(2H)-one]: the IC50 in assay [3] worked out at 2190 nM.

For `CC(C)(O)C#Cc1c[nH]c(=O)c2cc3ccnc(OC[C@@H]4CCC(=O)N4)c3cc12` [I-49, (S)-4-(3-hydroxy-3-methylbut-1-yn-1-yl)-6-((5-oxopyrrolidin-2-yl)methoxy)pyrido[3,4-g]isoquinolin-1(2H)-one], a half-maximal response in assay [4] (EC50) required 1440 nM.

In the case of `CC(=O)c1c[nH]c(=O)c2cc3ccnc(OC[C@@H]4CCC(=O)N4)c3cc12` [I-28, (S)-4-acetyl-6-((5-oxopyrrolidin-2-yl)methoxy)pyrido[3,4-g]isoquinolin-1(2H)-one], the IC50 in assay [3] amounted to 27.3 nM. Also, the EC50 in assay [4] was found to be 5650 nM.

Regarding `NC(=O)c1c[nH]c(=O)c2cc3ccnc(OC[C@@H]4CCC(=O)N4)c3cc12` [I-27, (S)-1-oxo-6-((5-oxopyrrolidin-2-yl)methoxy)-1,2-dihydropyrido[3,4-g]isoquinoline-4-carboxamide], in assay [3], the IC50 came out at 988 nM.

Turning to `CC(C)(N)c1c[nH]c(=O)c2cc3ccnc(OC[C@@H]4CCC(=O)N4)c3cc12` [I-26, (S)-4-(2-aminopropan-2-yl)-6-((5-oxopyrrolidin-2-yl)methoxy)pyrido[3,4-g]isoquinolin-1(2H)-one], the IC50 in assay [3] turned out to be 5350 nM. Moreover, a half-maximal effect in assay [4] (EC50) was put at 1780 nM.

Consider `NC(=O)Cc1c[nH]c(=O)c2cc3ccnc(OC[C@@H]4CCC(=O)N4)c3cc12` [I-41, (S)-2-(1-oxo-6-((5-oxopyrrolidin-2-yl)methoxy)-1,2-dihydropyrido[3,4-g]isoquinolin-4-yl)acetamide], for which the IC50 in assay [3] turned out to be 2540 nM.

As to `O=C1CC[C@@H](COc2nccc3cc4c(=O)[nH]cc(C5CNC5)c4cc23)N1` [I-23, (S)-4-(azetidin-3-yl)-6-((5-oxopyrrolidin-2-yl)methoxy)pyrido[3,4-g]isoquinolin-1(2H)-one], the IC50 in assay [3] worked out at 2400 nM.

As to `CS(=O)(=O)c1c[nH]c(=O)c2cc3ccnc(OC[C@@H]4CCC(=O)N4)c3cc12` [I-48, (S)-4-(methylsulfonyl)-6-((5-oxopyrrolidin-2-yl)methoxy)pyrido[3,4-g]isoquinolin-1(2H)-one], in assay [3], the IC50 amounted to 13800 nM. The EC50 in assay [4] was 10100 nM.

In the case of `CC[C@@H]1[C@H](F)C(=O)N[C@@H]1COc1nccc2cc3c(=O)[nH]cc(C(C)C)c3cc12` [I-51, 6-(((2S,3S,4S)-3-ethyl-4-fluoro-5-oxopyrrolidin-2-yl)methoxy)-4-isopropylpyrido[3,4-g]isoquinolin-1(2H)-one], the IC50 in assay [1] was determined as 0.0774 µM; in assay [3], 10 nM. In assay [4], this compound came in with an EC50 of 4 nM.

As to `C=C(C)c1c[nH]c(=O)c2cc3ccnc(OC[C@@H]4CCC(=O)N4)c3cc12` [I-11, (S)-6-((5-oxopyrrolidin-2-yl)methoxy)-4-(prop-1-en-2-yl)pyrido[3,4-g]isoquinolin-1(2H)-one], the IC50 came out at 6.49 µM in assay [1] and 7.8 nM in assay [3]. This compound gave an EC50 in assay [4] of 75 nM.

For `N#Cc1c[nH]c(=O)c2cc3ccnc(OC[C@@H]4CCC(=O)N4)c3cc12` [I-16, (S)-1-oxo-6-((5-oxopyrrolidin-2-yl)methoxy)-1,2-dihydropyrido[3,4-g]isoquinoline-4-carbonitrile], the IC50 stood at 10.3 µM in assay [1] and 22.2 nM in assay [3]. In assay [4], this compound yielded an EC50 of 1660 nM.
